# Laboratory results published in US10626112B2, “Heterocyclic sulfonamide derivative and medicine comprising same” (EA PHARMA CO., LTD., priority 2014, dated 2020).
# Target: human TRPA1 (Homo sapiens (Human), UniProt O75762)
# Assay: Measurement of TRPA1 antagonist activity (1): intracellular calcium increase
# Assay type: cell-based
# Details: 293T cells transfected with human TRPA1 expression plasmid; allylisothiocyanate 20 μM stimulation; intracellular calcium fluorescence; read-out: hTRPA1 IC50
# From the text: Measurement of TRPA1 Antagonist Activity (1)
# Human TRPA1 Expression Plasmid
# As cDNA encoding human TRPA1 (GenBank accession No. […]), a commercially available product was purchased (manufactured by Kazusa DNA Research Institute, clone No.: pFN21AB7348, item No.: FHC07217). Using this as a template, full-length human TRPA1 gene was amplified using the primer sequences shown below, by reaction using DNA polymerase (manufactured by Stratagene, trade name: PfuUltra High-Fidelity DNA Polymerase).
# A recognition site (underlined) of restriction enzyme HindIII was added to the 5′ side, and XbaI site (underlined) was added to the 3′ side, and GTT of the template sequence was changed to termination codon TAG (bold). The obtained double stranded DNA was enzyme-digested with HindIII and XbaI, and introduced into the multicloning site of expression plasmid pcDNA3.1/zeo(+) (manufactured by Invitrogen) to construct a human TRPA1 expression plasmid.
# Human embryonic kidney-derived 293T cells were cultured in Dulbecco's Modified Eagle Medium containing 10% fetal bovine serum, 10 unit penicillin, and 10 μg streptomycin, plated on a petri dish having a diameter of 10 cm at 3×10^6 cells, and cultured for 24 hr in a CO2 incubator. A reduced serum medium (manufactured by Invitrogen, trade name: OPTI-MEM, 600 μL), a gene transfer reagent (manufactured by Mirus Bio, trade name: Mirus TransIT-293, 18 μL), and human TRPA1 expression plasmid (6 μg) were mixed, the total amount of the mixture was added to the cells on the petri dish to allow for gene transfer. The cells were recovered about for 8 hr later, plated on a poly-D-lysine coated 384 well black/clear bottom plate at 12,000 cells/well, and cultured overnight.
# Measurement of Intracellular Calcium Increase
# The 384 well plate was recovered, and the medium was removed. A calcium-bonded fluorescent indicator (manufactured by Molecular Device, trade name: Calcium4 Assay Kit, 38 μL) dissolved in assay buffer (1×HBSS, 20 mM HEPES, pH 7.2) was added, and the cells were stained in a CO2 incubator for 1 hr. The cells were taken out at room temperature, stood for not less than 15 min, a test substance (10 μL) was added by a platereader FDSS7000 (Hamamatsu Photonics K.K.) equipped with a 384ch dispenser. After 10 min, allylisothiocyanate (12 μL) was further added at a final concentration of 20 μM, and changes in the relative fluorescence intensity after addition of allylisothiocyanate were measured for 5 min.
# Test Substance Preparation
# The test substance was dissolved in dimethyl sulfoxide and serially diluted with an assay buffer containing 0.1% bovine serum albumin (1×HBSS, 20 mM HEPES, pH 7.2) to a 4.8-fold concentration of the evaluation concentration. Allylisothiocyanate, which is a known TRPA1 activator, was dissolved in dimethyl sulfoxide to 100 mM, and further diluted 5-fold (100 μM) of the final concentration, like the test substance.
# Calculation of Antagonist Activity
# Under the test substance-free conditions, the maximum variation range of the fluorescence intensity before and after allylisothiocyanate stimulation was defined to be 100% activity rate, and the variation range before and after buffer stimulation was defined as 0% activity rate. The activity rate on addition of the test substance was determined, and the numerical value obtained by subtracting the activity rate from 100 was defined to be an inhibitory rate. IC50, which is the concentration of the test substance necessary for reaching the 50% inhibitory rate, was calculated from the sigmoid approximate curve by a spreadsheet software Excel-Fit.
# human TRPA1, sequence (O75762 whole entry): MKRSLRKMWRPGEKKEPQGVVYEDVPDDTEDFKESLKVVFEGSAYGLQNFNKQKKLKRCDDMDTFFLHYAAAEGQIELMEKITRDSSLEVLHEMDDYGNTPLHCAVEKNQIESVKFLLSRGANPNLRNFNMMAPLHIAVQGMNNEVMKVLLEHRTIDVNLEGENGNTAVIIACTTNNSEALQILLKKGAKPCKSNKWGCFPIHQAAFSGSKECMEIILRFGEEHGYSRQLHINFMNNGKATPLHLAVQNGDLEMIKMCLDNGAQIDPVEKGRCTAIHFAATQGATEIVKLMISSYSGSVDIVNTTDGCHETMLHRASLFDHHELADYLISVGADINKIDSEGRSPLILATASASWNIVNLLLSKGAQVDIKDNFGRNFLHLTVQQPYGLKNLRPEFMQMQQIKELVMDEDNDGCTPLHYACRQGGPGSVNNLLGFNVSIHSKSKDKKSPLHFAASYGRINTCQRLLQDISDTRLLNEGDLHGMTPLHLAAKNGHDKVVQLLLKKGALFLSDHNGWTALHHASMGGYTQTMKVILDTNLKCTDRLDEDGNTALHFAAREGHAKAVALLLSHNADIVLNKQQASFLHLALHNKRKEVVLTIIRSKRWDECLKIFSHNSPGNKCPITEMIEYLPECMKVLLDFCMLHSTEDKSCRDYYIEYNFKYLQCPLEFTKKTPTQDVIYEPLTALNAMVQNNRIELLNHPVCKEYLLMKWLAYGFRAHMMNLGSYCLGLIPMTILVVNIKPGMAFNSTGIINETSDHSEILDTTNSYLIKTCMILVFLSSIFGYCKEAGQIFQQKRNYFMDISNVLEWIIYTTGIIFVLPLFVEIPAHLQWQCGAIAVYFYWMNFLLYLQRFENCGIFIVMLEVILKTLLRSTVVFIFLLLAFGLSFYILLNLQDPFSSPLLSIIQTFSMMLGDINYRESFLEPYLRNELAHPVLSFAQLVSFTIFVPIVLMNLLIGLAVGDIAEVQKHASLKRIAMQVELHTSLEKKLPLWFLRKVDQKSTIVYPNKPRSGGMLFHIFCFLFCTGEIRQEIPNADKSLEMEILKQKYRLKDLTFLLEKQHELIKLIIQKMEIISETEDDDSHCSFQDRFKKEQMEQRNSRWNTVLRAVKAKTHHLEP
row,Structure (SMILES),IC50
1,"O=C(Nc1cccc(CNC(=O)[C@@H]2CCCN2S(=O)(=O)c2cc3ccccc3o2)c1)c1ccc(C(F)(F)F)cc1 [Example 300, (2S)-1-(benzofuran-2-ylsulfonyl)-N-[[3-[[4-(trifluoromethyl)benzoyl]amino]phenyl]methyl]pyrrolidine-2-carboxamide]",310 nM
2,"O=C(NCc1cccc(OS(=O)(=O)c2cc3cc(F)ccc3o2)c1)[C@@H]1CCCN1S(=O)(=O)c1cc2cc(F)ccc2o1 [Example 295, 5-fluorobenzofuran-2-sulfonic acid [3-[[[(2S)-1-(5-fluorobenzofuran-2-yl)sulfonylpyrrolidine-2-carbonyl]amino]methyl]phenyl]ester]",69 nM
3,"O=C(NCc1cccc(SCc2ccc(C(F)(F)F)cc2)c1)[C@@H]1CCCN1S(=O)(=O)c1cc2ccccc2o1 [Example 315, (2S)-1-(benzofuran-2-ylsulfonyl)-N-[[3-[[4-(trifluoromethyl)phenyl]methylsulfanyl]phenyl]methyl]pyrrolidine-2-carboxamide]",22 nM
4,"O=C(NCc1ccnc(-c2ccc(Cl)cc2)c1)[C@@H]1CCCN1S(=O)(=O)c1cc2ccccc2o1 [Example 198, (2S)-1-(benzofuran-2-ylsulfonyl)-N-[[2-(4-chlorophenyl)-4-pyridyl]methyl]pyrrolidine-2-carboxamide]",13 nM
5,"O=C(NCc1cccc(-c2ccc(C(F)(F)F)nc2)n1)[C@@H]1CCCN1S(=O)(=O)c1cc2cc(F)ccc2o1 [Example 145, (2S)-1-(5-fluorobenzofuran-2-yl)sulfonyl-N-[[6-[6-(trifluoromethyl)-3-pyridyl]-2-pyridyl]methyl]pyrrolidine-2-carboxamide]",29 nM
6,"O=C(NCc1ccc(-c2ccc(C(F)(F)F)cc2)cc1)[C@@H]1CCCN1S(=O)(=O)c1cc2ccccc2o1 [Example 165, (2S)-1-(benzofuran-2-ylsulfonyl)-N-[[4-[4-(trifluoromethyl)phenyl]-phenyl]methyl]pyrrolidine-2-carboxamide]",190 nM
7,"O=C(NCc1ccnc(-c2ccc(C(F)(F)F)cc2)c1)[C@@H]1CCCN1S(=O)(=O)c1cc2cccc(F)c2o1 [Example 219, (2S)-1-(7-fluorobenzofuran-2-yl)sulfonyl-N-[[2-[4-(trifluoromethyl)phenyl]-4-pyridyl]methyl]pyrrolidine-2-carboxamide]",390 nM
8,"O=C(NCc1cc(-c2cnc(C3CC3)nc2)ccc1F)[C@@H]1CCCN1S(=O)(=O)c1cc2ccccc2o1 [Example 173, (2S)-1-(benzofuran-2-ylsulfonyl)-N-[[5-(2-cyclopropylpyrimidin-5-yl)-2-fluoro-phenyl]methyl]pyrrolidine-2-carboxamide]",17 nM
9,"O=C(NCc1cccc(OCc2ccc(C(F)(F)F)cc2)c1)[C@@H]1CCCN1S(=O)(=O)c1cc2cccc(F)c2o1 [Example 39, (2S)-1-(7-fluorobenzofuran-2-yl)sulfonyl-N-[[3-[[4-(trifluoromethyl)phenyl]methoxy]-phenyl]methyl]pyrrolidine-2-carboxamide]",190 nM
10,"C[C@H](NS(=O)(=O)c1cc2cc(F)ccc2o1)C(=O)NCc1cc(-c2ccc(C(F)(F)F)cn2)c(O)cn1 [Example 255, (2S)-2-[(5-fluorobenzofuran-2-yl)sulfonylamino]-N-[[5-hydroxy-4-[5-(trifluoromethyl)-2-pyridyl]-2-pyridyl]methyl]propanamide]",17 nM
11,"O=C(NCc1cccc(-c2cnc(C(F)(F)F)cn2)c1)[C@@H]1CCCN1S(=O)(=O)c1cc2ccccc2o1 [Example 196, (2S)-1-(benzofuran-2-ylsulfonyl)-N-[[3-[5-(trifluoromethyl)pyrazin-2-yl]phenyl]methyl]-pyrrolidine-2-carboxamide]",2.9 nM
12,"O=C(NCc1cc(-c2ncc(C(F)(F)F)cn2)ccn1)[C@@H]1CCCN1S(=O)(=O)c1cc2ccccc2o1 [Example 192, (2S)-1-(benzofuran-2-ylsulfonyl)-N-[[4-[5-(trifluoromethyl)pyrimidin-2-yl]-2-pyridyl]methyl]pyrrolidine-2-carboxamide]",22 nM
13,"O=C(NCc1ccc(Oc2ccnc(C(F)(F)F)c2)cc1)[C@@H]1CCCN1S(=O)(=O)c1cc2ccccc2o1 [Example 55, (2S)-1-(benzofuran-2-ylsulfonyl)-N-[[4-[[2-(trifluoromethyl)-4-pyridyl]oxy]phenyl]methyl]-pyrrolidine-2-carboxamide]",88 nM
14,"CN(C)c1ccc(-c2ccc(F)c(CNC(=O)[C@@H]3CCCN3S(=O)(=O)c3cc4ccccc4o3)c2)cn1 [Example 172, (2S)-1-(benzofuran-2-ylsulfonyl)-N-[[5-[6-(dimethylamino)-3-pyridyl]-2-fluoro-phenyl]methyl]pyrrolidine-2-carboxamide]",11 nM
15,"O=C(NCc1ccnc(-c2ccc(C(F)(F)F)cc2O)c1)[C@@H]1CCCN1S(=O)(=O)c1cc2cnccc2o1 [Example 271, (2S)-1-furo[3,2-c]pyridin-2-ylsulfonyl-N-[[2-[2-hydroxy-4-(trifluoromethyl)phenyl]-4-pyridyl]methyl]pyrrolidine-2-carboxamide]",4.4 nM
16,"O=C(NCc1cccc(OCC2CCCOC2)c1)[C@@H]1CCCN1S(=O)(=O)c1cc2cc(F)ccc2o1 (stereo partly drawn) [Example 31, (2S)-1-(5-fluorobenzofuran-2-yl)sulfonyl-N-[[3-(tetrahydropyran-3-ylmethoxy)phenyl]-methyl]pyrrolidine-2-carboxamide]",4.3 nM
17,"N#Cc1ccc(-c2ccnc(CNC(=O)[C@@H]3CCCN3S(=O)(=O)c3cc4ccccc4o3)c2)nc1 [Example 152, (2S)-1-(benzofuran-2-ylsulfonyl)-N-[[4-(5-cyano-2-pyridyl)-2-pyridyl]methyl]pyrrolidine-2-carboxamide]",160 nM
18,"CN(C)c1cc(COc2cccc(CNC(=O)[C@@H]3CCCN3S(=O)(=O)c3cc4cc(F)ccc4o3)c2)ccn1 [Example 17, (2S)-N-[[3-[[2-(dimethylamino)-4-pyridyl]methoxy]phenyl]-methyl]-1-(5-fluorobenzofuran-2-yl)sulfonyl-pyrrolidine-2-carboxamide]",15 nM
19,"O=C(NCc1cc(-c2ccc(OC(F)(F)F)cc2)ccn1)[C@@H]1CCCN1S(=O)(=O)c1cc2ccccc2o1 [Example 153, (2S)-1-(benzofuran-2-ylsulfonyl)-N-[[4-[4-(trifluoromethoxy)phenyl]-2-pyridyl]methyl]pyrrolidine-2-carboxamide]",5.6 nM
20,"O=C(NCc1cccc(OCc2cccnc2)c1)[C@@H]1CCCN1S(=O)(=O)c1cc2cc(F)ccc2o1 [Example 14, (2S)-1-(5-fluorobenzofuran-2-yl)sulfonyl-N-[[3-(3-pyridylmethoxy)phenyl]-methyl]pyrrolidine-2-carboxamide]",20 nM
21,"O=C(NCc1cccc(COc2ccc(C(F)(F)F)cc2)c1)[C@@H]1CCCN1S(=O)(=O)c1cc2ccccc2o1 [Example 298, (2S)-1-(benzofuran-2-ylsulfonyl)-N-[[3-[[4-(trifluoromethyl)phenoxy]methyl]phenyl]methyl]pyrrolidine-2-carboxamide]",11 nM
22,"CNc1ccc(-c2ccc(F)c(CNC(=O)[C@@H]3CCCN3S(=O)(=O)c3cc4ccccc4o3)c2)cn1 [Example 177, (2S)-1-(benzofuran-2-ylsulfonyl)-N-[[2-fluoro-5-[6-(methylamino)-3-pyridyl]phenyl]methyl]pyrrolidine-2-carboxamide]",300 nM
23,"O=C(NCc1cc(-c2ccc(C(F)(F)F)nc2)ccn1)[C@@H]1CCCN1S(=O)(=O)c1cc2ccccc2o1 [Example 151, (2S)-1-(benzofuran-2-ylsulfonyl)-N-[[4-[6-(trifluoromethyl)-3-pyridyl]-2-pyridyl]methyl]pyrrolidine-2-carboxamide]",1.9 nM
24,"O=C(NCc1cccc(-c2ccc(C(F)(F)F)cn2)c1)[C@@H]1CCCN1S(=O)(=O)c1cc2ccccc2o1 [Example 80, (2S)-1-(benzofuran-2-ylsulfonyl)-N-[[3-[5-(trifluoromethyl)-2-pyridyl]phenyl]methyl]pyrrolidine-2-carboxamide]",1.2 nM
